From publication PMC7902086 (Toxicology letters, 2019)
“And” between values parts separate entries of the source, which are not always exact repeats. Equal entries are not always repeated.

Key:
CYP2D6 = CYP2D6 (Homo sapiens, UniProt P10635); conditions: known CYP2D6 substrates; ref Obach et al., 2006; cited from earlier work
CYP2C19 = CYP2C19 (Homo sapiens, UniProt P33261); assay: CYP450 inhibition assay, S-mephenytoin 4′-hydroxylase in human liver microsomes; format: in vitro ADME; conditions: read-out: IC50, CYP2C19 S-Mephenytoin 4′-hydroxylase; human liver microsomes 0.1 mg/mL; mean of triplicate
CYP3A4/5 [1] = assay: CYP450 inhibition assay, midazolam 1′-hydroxylase in human liver microsomes; format: in vitro ADME; conditions: read-out: IC50, CYP3A4/5 Midazolam 1′-hydroxylase; human liver microsomes 0.1 mg/mL; mean of triplicate
CYP3A4/5 [2] = assay: CYP450 inhibition assay, testosterone 6β-hydroxylase in human liver microsomes; format: in vitro ADME; conditions: read-out: IC50, CYP3A4/5 Testosterone 6β-hydroxylase; human liver microsomes 0.1 mg/mL; mean of triplicate
[3] = deceased kratom users in the United States, autopsies; ref Gershman et al., 2019; cited from earlier work
μ-opioid receptors = conditions: ref Boyer et al., 2008; Kruegel et al., 2016; cited from earlier work
CYP3A4 = conditions: in humans; ref Kamble et al., 2019; cited from earlier work

CYP2D6, sequence (P10635 whole entry): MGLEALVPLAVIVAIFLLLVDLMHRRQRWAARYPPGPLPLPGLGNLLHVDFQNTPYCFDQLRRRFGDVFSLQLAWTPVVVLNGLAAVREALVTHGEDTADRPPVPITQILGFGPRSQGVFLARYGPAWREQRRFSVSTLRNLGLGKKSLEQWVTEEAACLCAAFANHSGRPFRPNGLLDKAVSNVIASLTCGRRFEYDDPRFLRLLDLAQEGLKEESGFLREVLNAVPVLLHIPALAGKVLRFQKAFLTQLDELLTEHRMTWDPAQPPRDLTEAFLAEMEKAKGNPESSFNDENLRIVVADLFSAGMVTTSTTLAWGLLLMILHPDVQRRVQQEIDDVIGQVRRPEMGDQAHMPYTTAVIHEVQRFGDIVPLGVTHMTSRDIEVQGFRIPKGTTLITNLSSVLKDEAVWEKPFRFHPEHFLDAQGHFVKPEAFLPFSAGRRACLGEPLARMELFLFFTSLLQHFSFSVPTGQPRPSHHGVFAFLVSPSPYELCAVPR
CYP2C19, sequence (P33261 whole entry): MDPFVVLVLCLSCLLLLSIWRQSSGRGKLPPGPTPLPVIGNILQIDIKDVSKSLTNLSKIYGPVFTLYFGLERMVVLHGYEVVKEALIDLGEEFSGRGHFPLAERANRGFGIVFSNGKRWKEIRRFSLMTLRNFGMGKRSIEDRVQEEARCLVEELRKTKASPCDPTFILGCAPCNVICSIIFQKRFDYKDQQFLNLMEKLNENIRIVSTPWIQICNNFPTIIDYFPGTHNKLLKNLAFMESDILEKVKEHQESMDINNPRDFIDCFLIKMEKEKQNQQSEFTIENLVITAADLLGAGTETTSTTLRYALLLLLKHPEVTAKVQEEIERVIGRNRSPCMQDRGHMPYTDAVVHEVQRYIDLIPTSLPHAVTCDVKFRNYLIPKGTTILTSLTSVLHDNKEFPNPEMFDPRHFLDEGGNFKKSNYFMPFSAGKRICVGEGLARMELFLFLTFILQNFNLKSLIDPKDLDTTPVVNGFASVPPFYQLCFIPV

Row | Compound | fm, CYP2D6 (CYP2D6) | IC50 (CYP2C19) [µM] | IC50 (CYP3A4/5 [1]) [µM] | IC50 (CYP3A4/5 [2]) [µM] | also measured
1 | COCCc1ccc(OCC(O)CNC(C)C)cc1 (stereo not shown) [metoprolol] | 0.8 | – | – | – | –
2 | CC[C@H]1CN2CCc3c([nH]c4cccc(OC)c34)[C@@H]2C[C@@H]1/C(=C\OC)C(=O)OC [SPG, speciogynine] | – | 19.5 | 13.5 | > 45 | –
3 | CNCCCN1c2ccccc2CCc2ccccc21 [desipramine] | 0.9 | – | – | – | –
4 | COc1ccc2c(c1)[C@]13CCCC[C@@H]1[C@H](C2)N(C)CC3 [dextromethorphan] | 1 | – | – | – | –
5 | C=C[C@H]1CN2CCc3c([nH]c4cccc(OC)c34)[C@@H]2C[C@@H]1/C(=C\OC)C(=O)OC [PAY, paynantheine] | – | 38.4 | 7.9 | > 45 | –
6 | mitragynine [MTG] | – | – | – | – | serum concentration levels [3]: 16 to 4800 ng/mL and 0.041–12.05 μM; activity at μ-opioid receptors (μ-opioid receptors): partial agonists; enzyme predominantly responsible for metabolism (CYP3A4): predominantly metabolized by CYP3A4
7 | CC[C@@H]1CN2CC[C@@]3(O)C(=Nc4cccc(OC)c43)[C@@H]2C[C@@H]1/C(=C\OC)C(=O)OC [7HMG, 7-hydroxymitragynine] | – | 27.7 | > 45 | > 45 | activity at μ-opioid receptors (μ-opioid receptors): partial agonists
8 | CC[C@@H]1CN2CCc3c([nH]c4cccc(OC)c34)[C@H]2C[C@@H]1/C(=C\OC)C(=O)OC [SPC, speciocilliatine] | – | 8 | 26.4 | > 45 | –
